Experimental data as given in paper PMC7604311, “Caprine Bactenecins as Promising Tools for Developing New Antimicrobial and Antitumor Drugs” (Frontiers in Cellular and Infection Microbiology, 2020).
Values after ≈ are worked out from the molar mass of the structure shown. Bridge positions count the residues as written; N and C are the ends. Ends that are not written are not given here. Peptide text beside a SMILES is read from it.

Columns and labels:
[1] = Standard acute toxicity test; format: in vivo; details: at the utilized doses (1 or 100 μg per animal); data not shown
[2] = test system: E. coli ML-35p; experiment: Broth microdilution assay (MIC); format: cell-based, Escherichia coli; details: 50% MH broth/50% 10 mM Na-P buffer pH 7.4 with 0.1% BSA, 1×10^6 CFU/ml, 20 h, median of 3–6 independent experiments in triplicate
Procedure: (§1) The minimal inhibitory concentrations (MIC) of peptides were determined using microdilution assay in Müller–Hinton (MH) broth in general accordance with the guidelines of the European Committee for Antimicrobial Susceptibility Testing. Test plates were additionally pretreated with 0.1% bovine serum albumin (BSA) in distilled H2O (incubated for 1 h at 37°C) to reduce possible non-specific binding of peptides to the plastic surface of the wells, as proposed for AMP activity measuring ([Tossi et al., 1997]; [Wiegand et al., 2008]). Two-fold serial dilutions of peptides starting with 2 × stock concentration were prepared in sterile 10 mM sodium phosphate (Na-P) buffer, pH 7.4, with 0.1% BSA. Thus, final solutions contained 50% of Na-P diluted peptide and 50% of MH broth with bacteria. Bacteria for testing were grown overnight, then transferred into a fresh portion of 2.1% MH medium and additionally incubated for 2–3 h to obtain bacterial culture in its mid-logarithmic growth phase, which was diluted down to the final concentration of 1 × 10^6 CFU/ml. Concentration of bacteria in growth medium was calculated based on its absorbance at 620 nm.
After 20 h of incubation of AMPs with bacteria MICs were determined as lowest concentrations of AMPs completely preventing the visible growth of bacteria. Tests were performed in 60-well Terasaki microplates (10 µl end volume, V-shaped bottom; Sarstedt, Germany); dilutions in each test were made in triplicate. Final MIC values were calculated as medians based on the results of 3–5 independent experiments.

[3] = test system: Gram-positive and Gram-negative bacteria; experiment: Geometric mean of MICs (GMIC) over tested strains; format: cell-based; details: geometric mean of MICs against all tested bacteria
Procedure: as §1
After 20 h of incubation of AMPs with bacteria MICs were determined as lowest concentrations of AMPs completely preventing the visible growth of bacteria. […] Final MIC values were calculated as medians based on the results of 3–5 independent experiments.

[4] = MTT test; format: cell-based; details: human, serum-free RPMI-1640, overnight incubation, mean ± SD of three independent tests, read-out: IC50 of cytotoxic action toward human PBMC
Procedure: Cytotoxic activity of peptides toward various types of eukaryotic cells was assessed using the standard MTT [3-(4,5-Dimethylthiazol-2-yl)-2,5-diphenyltetrazolium bromide] test ([Mosmann, 1983]). Human peripheral blood mononuclear cells (PBMC) were isolated from the peripheral blood of healthy donors. Whole heparinized blood diluted 3-fold with sterile PBS was carefully layered upon the 5 ml of the sterile Ficoll-400 (Pharmacia, Sweden) with a density of 1.077 in a sterile 50 ml conical tube and then centrifuged at 600 g and 4°C for 40 min. The mononuclear “ring” remaining above the Ficoll was collected using a transfer pipette and placed in another tube. Cells were washed twice with sterile PBS, resuspended in RPMI-1640 culture medium and immediately used for the test. Tumor cell lines were purchased from Biolot (Saint Petersburg, Russia) and cultured at 37°C and 5% CO2 in RPMI-1640 medium (Biolot, Saint Petersburg, Russia) supplemented with 10% fetal bovine serum, glutamine, and penicillin-streptomycin combination. For the experiments, cells were washed from the medium they were growing in and resuspended in serum- and antibiotic-free RPMI-1640. Cells were added at not less than 2 × 10^4 per well in sterile flat bottom 96-well microplates containing serial dilutions of tested peptides in RPMI-1640. For the positive control (100% viable cells), RPMI-1640 medium was used instead of the peptide solution, whereas for the negative control (0% viable cells) medium replaced both peptide and cells. Test plates were incubated at 37°C and 5% CO2 overnight, after which MTT metabolic marker in PBS (5 mg/ml) was introduced into each well. After an additional 4 h incubation, the reaction was stopped by adding isopropanol supplemented with 0.04 M HCl, in which the formazan crystals (formed as a result of MTT reduction in presence of metabolically active cells) were dissolved, and OD at 540 nm was measured. Background absorbance at 690 nm was subtracted from the results to countervail any unspecific OD fluctuations. The % of surviving cells was found as:
(2) Survival(%)=(ODsample−OD0% viable)/(OD100% viable−OD0% viable)×100%,
where ODsample, OD0% viable, and OD100% viable are respectively values of the OD at 540 nm minus the OD at 690 nm for the test sample and negative or positive controls. IC50 toxicity values were determined by nonlinear regression analysis of the dose response curves using Sigma Plot 11 (Systat Software Inc., USA). The experiments were repeated three times, with 3 parallels of samples and 4–6 parallels of controls each time.

[5] = test system: P. aeruginosa MDR 522/17; format: cell-based, Pseudomonas aeruginosa; details: MDR 522/17, 24 h
Procedure: (§2) Quantification of the biofilms forming in the presence of various concentrations of tested AMPs was performed using the crystal violet assay according to general guidelines ([Merritt et al., 2006]). Tests were performed in polystyrene 96-well plates with U-shaped bottom. Peptides were serially diluted in a bacterial growth medium (MH for A. baumannii or TSB for P. aeruguinosa) in a volume of 50 μl per well. Overnight cultures of tested bacteria in a stationary phase of growth were 50 times diluted and introduced into the experimental wells at the same volume of 50 μl. Samples were incubated for 24 h at 37°C. The content of the wells was then shacked out, the plates were gently washed from unattached planktonic bacteria in still water (poured into a large enough vessel); bacterial cells and matrix components adhered to the walls of the wells were stained with a 0.1% aqueous solution of crystal violet dye: 125 μl of dye solution was put into each well and incubated at room temperature for 10 min. After staining dye solution was removed, the plates were washed with clean water and allowed to air-dry. Finally, the bound dye was redissolved by adding 200 μl of 30% acetic acid into each well, incubating it for 15 min at room temperature, and then thoroughly mixing the content of the wells by pipetting. One hundred and twenty five microliters of crystal violet extract from each well were transferred into a flat-bottomed microtiter plate, and the optical density was measured at a wavelength of 560–595 nm (depending on the maximum of absorption in a particular experiment). Experimental samples were made in quadruplicates, and there were 8–9 repeats of control samples without peptides in each test. Presented results are medians calculated based on 3 independent experiments.

[6] = test system: human erythrocytes; details: cited from earlier work
Source text: The majority of AMPs are membranolytic, and even though eukaryotic cell membranes are less anionic than those of bacterial cells, have a lower membrane potential and are protected by the presence of cholesterol ([Matsuzaki, 2009]), they are considered to be a secondary target, affecting the selectivity of AMPs. […] The hemolysis assay is widely utilized for the express analysis of the toxic properties of AMPs, relating to their membranolytic activity. It was previously shown that na ...

[7] = test system: A. baumannii 7226/16; format: cell-based, Acinetobacter baumannii; details: 7226/16, 24 h
Procedure: as §2, with “After staining dye solution was removed, the plates were washed with clean water and allowed to air-dry. Finally, the bound dye was redissolved by adding 200 μl of 30% acetic acid into each well, incubating it for 15 min at room temperature, and then thoroughly mixing the content of the wells by pipetting.” left out, “Experimental samples were made in quadruplicates, and there were 8–9 repeats of control samples without peptides in each test.” left out

[8] = test system: K562 cells; experiment: Annexin V-Cy3 apoptosis detection assay; format: cell-based, human; details: K562, 2 h incubation with peptide, Annexin-Cy3.18/6-CFDA staining
Source text: Annexin V-Cy3 Apoptosis Detection kit (Sigma, USA) was used to distinguish between cells dying via necrosis and cells entering apoptosis. This kit includes a combination of red and green fluorescent dyes; 6-Carboxyfluorescein diacetate (6-CFDA) is hydrolyzed by esterases inside viable (still functional) cells, producing the green fluorescent compound 6-carboxyfluorescein. Annexin-Cy3.18, giving red fluorescence, binds to phosphatidylserine which only becomes exposed in the outer leaflet of the plasma membrane for cells entering the apoptotic process, or if the plasma membrane is damaged during necrosis. Thus, living cells are only stained green, necrotic ones are only stained red, while cells in the early stages of apoptosis are stained by both dyes.
To assess the effects of the peptides, cells were incubated in their presence for 2 h under the same conditions as described for trypan blue assay. […] After 10 min incubation at room temperature cells were washed from excess dyes with 1 × binding buffer and analyzed under the luminescent microscope (Leica DM2500, Leica Microsystems, Germany). […] The resulting percentage of viable, apoptotic, and necrotic cells are shown as mean with SD, calculated based on three independent experiments.

[9] = test system: K562 cells; experiment: Trypan blue dye exclusion assay; format: cell-based, human; details: K562, 1×10^6 cells/ml, serum-free RPMI-1640, first 3 h of incubation
Procedure: Living cells exclude the dye, so that their cytoplasm remains clear. When damaged cells take up the dye, it binds to intracellular proteins and renders them a blue color. Cells suspended to a concentration of 1 × 10^6 per ml in RPMI-1640 medium (serum-free) were incubated with various concentrations of the peptides of interest for various periods of time at 37°C and 5% CO2. Then they were stained with 0.2% trypan blue dye solution in PBS for 3 min at room temperature, and dead and living cells were counted using a hemocytometer. Percentage of viable cells was calculated as follows:
(3) Viable cells (%) =total number of viable cells/total number of cells×100%,
Experiments were repeated three times before plotting time-killing curves. For each time point, data are presented as mean with standard deviation (SD).

Compound | MIC [2] [µM] | IC50 [4] [µM] | other results
RFRLPFRRIHPPPFVRIHPPPFYRRFL [ChBac3.4-1-COOH] | 2 to 4 |  | Toxic action in acute toxicity test [1]: no visible signs of toxic action
CC[C@H](C)[C@H](NC(=O)[C@H](CCCNC(=N)N)NC(=O)[C@@H](NC(=O)[C@H](Cc1ccccc1)NC(=O)[C@@H]1CCCN1C(=O)[C@@H]1CCCN1C(=O)[C@@H]1CCCN1C(=O)[C@H](Cc1c[nH]cn1)NC(=O)[C@@H](NC(=O)[C@H](CCCNC(=N)N)NC(=O)[C@H](CCCNC(=N)N)NC(=O)[C@H](Cc1ccccc1)NC(=O)[C@@H]1CCCN1C(=O)[C@H](CC(C)C)NC(=O)[C@H](CCCNC(=N)N)NC(=O)[C@H](Cc1ccccc1)NC(=O)[C@@H](N)CCCNC(=N)N)[C@@H](C)CC)C(C)C)C(=O)N[C@@H](Cc1c[nH]cn1)C(=O)N1CCC[C@H]1C(=O)N1CCC[C@H]1C(=O)N1CCC[C@H]1C(=O)N[C@@H](Cc1ccccc1)C(=O)N[C@@H](Cc1ccc(O)cc1)C(=O)N[C@@H](CCCNC(=N)N)C(=O)N[C@@H](CCCNC(=N)N)C(=O)N[C@@H](Cc1ccccc1)C(=O)N[C@@H](CC(C)C)C(=O)O [ChBac3.4-1-COOH (rec)] (H-RFRLPFRRIHPPPFVRIHPPPFYRRFL-OH; N-terminus assumed) | 4 (≈ 14.1 µg/mL) | 40.8 ± 9.1 | GMIC total [3]: 5.0 µM
RFRLPFRRIHPPPFVRIHPPPFYRRFL-NH2 [ChBac3.4-1-NH2] | 4 | 12.1 ± 0.8 | 
RIHPPPFYPPFRRFL-NH2 [ChBac3.4 (12-26)] | 64 | 43.3 ± 7.7 | 
RFRLPFRRPPIRIHPPPFYPPFRRFL-NH2 [ChBac3.4-NH2] | 2 | 18.6 ± 0.8 | Biofilm inhibition [5]: 63 ± 9%; Hemolytic activity [6]: not hemolytic; Biofilm inhibition [7]: 56 ± 12%
protegrin 1 (RGGRLCYCRRRFCVCVGR-NH2; disulfide 8-13, 6-15; ends not checked; UniProt P32194 131-148, looked up) [PG-1] |  |  | Apoptosis versus necrosis [8]: prominent, dose-dependent prevalence of necrosis over apoptosis; Dynamics of cytocidal action [9]: swift and pronounced effect, observable in the first 30 min of exposure
RFRRFRLPFRRIHPPPFVRIHPPPFYRRFL-NH2 [RFR-ChBac3.4-1-NH2] | 4 | 18.3 ± 4.1 | Biofilm inhibition [5]: 62 ± 1.5%
